Experimental data taken from US20050095606A1, “Partially double-stranded nucleic acids, methods of making, and use thereof” (priority 2001, published 2005).

How the values were obtained:
Type in all cases: cell-based
Details in all cases: 6 hours
C-myc [1] = test: Flow-Thru Chip gene expression analysis after multiplex RT-PCR, MCF-7 cells
Excerpt: (§1) MCF-7 cells are estrogen responsive breast adenocarcinoma cells that have been used previously as a model system for evaluation of breast cancer drugs. Initial studies have examined the effect of an anti-estrogen, tamoxifen, on the estradiol response of MCF-7 cells. Estradiol stimulates cell proliferation through the G1 phase in synchronized cell growth studies. Tamoxifen treatment of cells inhibits the induction of several genes that occur upon estradiol treatment by blocking estrogen receptor cofactors required for transcription. The Flow-Thru Chip™has been used as an analysis platform for a set of genes reported in the literature as differentially regulated in the MCF-7 system under estradiol and tamoxifen treatment. TAQMAN® PCR was performed to measure the changes in expression levels for each of the monitored genes across the treatments.
(§2) The experimental protocols for estradiol and tamoxifen treatment have been described in detail elsewhere (Wosikowski et al., Int. J. Cancer 53:290-297 (1993)). In this study MCF-7 (ATTC, Manassas, Va.) cells were maintained in MEM alpha medium supplemented with 10% heat-inactivated fetal bovine serum, Penicillin-Streptomycin and 10 μg/ml bovine insulin (complete medium) (Life Technologies, Gaithersburg, Md.). […] The purity and integrity of the total RNA was assessed by the 260/280 absorbance and the 28s/18s RNA ratios.
(§3) Analysis of genes under test by the Flow-Thru Chip™ required amplification from the total RNA. […] The appropriate number of cycles for each grouping of target nucleic acids was determined empirically to assure that all targets in the group were in the linear dynamic range of the chip and had not reached primer limitation in the PCR amplification. […]
(§4) The ability to multiplex target nucleic acids under study was confirmed by TAQMAN®, analysis of the singleplex and multiplex amplifications. […] Changes in expression level between samples were determined by comparing the brightness of gene-spots measured for each target nucleic acid relative to a reference target nucleic acid, β-actin. […]

C-myc [2] = test: TAQMAN PCR gene expression analysis, MCF-7 cells
Excerpt: as §1, with “The Flow-Thru Chip™has been used as an analysis platform for a set of genes reported in the literature as differentially regulated in the MCF-7 system under estradiol and tamoxifen treatment.” left out
The experimental protocols for estradiol and tamoxifen treatment have been described in detail elsewhere (Wosikowski et al., Int. J. Cancer 53:290-297 (1993)). […] The purity and integrity of the total RNA was assessed by the 260/280 absorbance and the 28s/18s RNA ratios.
as §4

[3] = test system: 12 target nucleic acids in MCF-7 cells; test: Change in expression level of 12 target nucleic acids across cell treatments (Flow-Thru Chip and TAQMAN)
Excerpt: as §1, §2, §3, §4

SMILES | C-myc fold up-regulation (C-myc [1]; 10 nM 17-beta-estradiol, relative to vehicle control (=1.0), reference β-actin, Flow-Thru Chip) | C-myc fold up-regulation (C-myc [2]; 10 nM 17-beta-estradiol, relative to vehicle control (=1.0), reference β-actin, TAQMAN) | effect on expression of the target nucleic acids ([3]; 10 nM 17-beta-estradiol) | influence on C-myc expression (C-myc [1]; 1 μM tamoxifen alone, method not stated) | C-myc fold increase (C-myc [1]; 1 μM tamoxifen in conjunction with 10 nM 17-beta-estradiol, Flow-Thru Chip (same by both methods)) | C-myc fold increase (C-myc [2]; 1 μM tamoxifen in conjunction with 10 nM 17-beta-estradiol, TAQMAN (same by both methods)) | effect on estradiol induction of the set of target nucleic acids ([3]; 1 μM tamoxifen added to 10 nM 17-beta-estradiol) | influence on expression of any of the target nucleic acids ([3]; 1 μM tamoxifen alone)
C[C@]12CC[C@@H]3c4ccc(O)cc4CC[C@H]3[C@@H]1CC[C@@H]2O [estradiol, 17-beta-estradiol] | 23±4 fold | 27±6 fold | induces expression |  |  |  |  | 
CC/C(=C(\c1ccccc1)c1ccc(OCCN(C)C)cc1)c1ccccc1 [tamoxifen] |  |  |  | no influence | roughly 8 fold | roughly 8 fold | suppresses the induction | little influence
